Reference: PubChem BioAssay AID1963979 (Molecular Pharmacology Branch, DTP, NCI, 2024)
Each block holds one molecule with its values, some of them ahead of it.

Tested on: 361931-004-R-J1-PDC multicell spheroid viability
Experiment: Anticancer human tumor 361931-004-R-J1-PDC patient-derived colon adenocarcinoma cell line growth inhibition [PI3K]
Conditions: for IC50: curve of first compound; for viability, T/C: stronger effect = lower value
From the text: Combinatorial screen of targeted agents with the PI3K inhibitors inavolisib, alpelisib, duvelisib, and copanlisib in multi-cell type tumor spheroids
A high-throughput screen of multi-cell type tumor spheroids was designed to identify active combinations of targeted small molecules and PI3K pathway inhibitors. Complex spheroids include a stromal component modeled by human endothelial cells (HUVEC) and fibroblasts modeled by human mesenchymal stem cells (MSCs). The concentration ranges selected for each drug and investigational agent were based upon clinically achievable concentrations if the clinical Cmax of the agent was known.
Compounds. The drugs and investigational agents: inavolisib (NSC800729), alpelisib (NSC765974), duvelisib (NSC772469), copanlisib (NSC816437), ipatasertib (NSC767898), afuresertib (NSC778305), talazoparib (NSC767125), sapanisertib (NSC764658), selumetinib (NSC741078), tovorafenib (DAY101, NSC766906), vemurafenib (NSC761431), ravoxertinib (NSC781343), sotorasib (NSC818433), MRTX1133 (NSC 836407), abemaciclib (NSC 768073), palbociclib (NSC758247), venetoclax (NSC 766270), SY5609 (NSC837396), enzalutamide (NSC755605), and darolutamide (NSC825331), were obtained from the National Cancer Institute (NCI) Developmental Therapeutics Program Chemical Repository. The FDA-approved anticancer drug set is available from the NCI Developmental Therapeutics Program. […] The stock solutions were prepared in dimethyl sulfoxide (DMSO, Sigma-Aldrich, St. Louis, MO, cat. D2650) at 800-fold the tested concentration and stored at -70 degrees C prior to their use. All drugs and investigational agents were tested over a range starting from a high concentration at or near the clinical Cmax and decreasing in half-log increments. If the clinical Cmax for an agent had not been determined, the highest concentration tested was 10 microM.
Cell Culture. All cells were maintained in an incubator at 37 degrees C and 5% CO2 with 95% humidity. The PDC lines were cultured according to standard operating procedures established by the NCI PDMR (https://pdmr.cancer.gov/sops/default.htm). All PDCs were thawed and cultured in Matrigel-coated flasks prepared with a working solution of 1X Ham's F-12 nutrient mix, without supplementation (Invitrogen, Waltham, MA, cat. 11765054), 100 U/mL penicillin-streptomycin (Invitrogen, cat. 15140122), and 2.5% Matrigel (Corning Inc., Corning, NY, cat. 354248) for the first three passages. The 354836-022-R-J1-PDC, 475296-252-R-J1-PDC, and 997726-040-R-J2-PDC lines were cultured in 6A media, which includes advanced DMEM/F-12 (Thermo Fisher Scientific, cat. 12634028), 10 mM HEPES (Thermo Fisher Scientific, cat. 15630080), 1X GlutaMAX supplement (Thermo Fisher Scientific, cat. 35050061), 0.1 mg/mL primocin (InvivoGen, San Diego, CA, cat. ant-pm-2), 10% defined fetal bovine serum, heat inactivated (HyClone Laboratories Inc., Logan, UT, cat. SH30070.03HI), 50% L-WRN conditioned media (ATCC, cat. CRL-3276), 1.25 mM N-Acetyl-L-cysteine (Sigma-Aldrich, cat. A9165), 10 mM nicotinamide (Sigma-Aldrich, cat. N0636), 1X B-27 supplement (Thermo Fisher Scientific, cat. 17504044), 1X N-2 supplement (Thermo Fisher Scientific, cat. 17502048), and 10 microM Y-27632 dihydrochloride (Tocris Bioscience, Bristol, United Kingdom, cat. 1254). The 624824-186-R-J2-PDC line was cultured in 6C/Colon 1B media, which includes all 6A media components plus 50 ng/mL human EGF recombinant protein (Thermo Fisher Scientific, cat. PHG0311). […]

[1] = second compound 0.00316 µM, first compound 0.000316 µM
[2] = second compound 0.00316 µM, first compound 0.001 µM
[3] = second compound 0.00316 µM, first compound 0.00316 µM
[4] = second compound 0.00316 µM, first compound 0.01 µM
[5] = second compound 0.00316 µM, first compound 0.0316 µM
[6] = second compound 0.00316 µM, first compound 0.1 µM
[7] = second compound 0.01 µM, first compound 0.000316 µM
[8] = second compound 0.01 µM, first compound 0.001 µM
[9] = second compound 0.01 µM, first compound 0.00316 µM
[10] = second compound 0.01 µM, first compound 0.01 µM
[11] = second compound 0.01 µM, first compound 0.0316 µM
[12] = second compound 0.01 µM, first compound 0.1 µM
[13] = second compound 0.0316 µM, first compound 0.000316 µM
[14] = second compound 0.0316 µM, first compound 0.001 µM
[15] = second compound 0.0316 µM, first compound 0.00316 µM
[16] = second compound 0.0316 µM, first compound 0.01 µM
[17] = second compound 0.0316 µM, first compound 0.0316 µM
[18] = second compound 0.0316 µM, first compound 0.1 µM
[19] = second compound 0.1 µM, first compound 0.000316 µM
[20] = second compound 0.1 µM, first compound 0.001 µM
[21] = second compound 0.1 µM, first compound 0.00316 µM
[22] = second compound 0.1 µM, first compound 0.01 µM
[23] = second compound 0.1 µM, first compound 0.0316 µM
[24] = second compound 0.1 µM, first compound 0.1 µM
[25] = second compound 0.316 µM, first compound 0.000316 µM
[26] = second compound 0.316 µM, first compound 0.001 µM
[27] = second compound 0.316 µM, first compound 0.00316 µM
[28] = second compound 0.316 µM, first compound 0.01 µM
[29] = second compound 0.316 µM, first compound 0.0316 µM
[30] = second compound 0.316 µM, first compound 0.1 µM
[31] = second compound 1 µM, first compound 0.000316 µM
[32] = second compound 1 µM, first compound 0.001 µM
[33] = second compound 1 µM, first compound 0.00316 µM
[34] = second compound 1 µM, first compound 0.01 µM
[35] = second compound 1 µM, first compound 0.0316 µM
[36] = second compound 1 µM, first compound 0.1 µM
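Also: spheroids exposed to agents for seven days before readout.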

- IC50 (second compound 0.00316 µM): > 100 nM
- IC50 (second compound 0.01 µM): > 100 nM
- IC50 (second compound 0.0316 µM): > 100 nM
- IC50 (second compound 0.1 µM): > 100 nM
- IC50 (second compound 0.316 µM): > 100 nM
- IC50 (second compound 1 µM): 91.6 nM
Structure (SMILES): CC(=O)c1c(C)c2cnc(Nc3ccc(N4CCNCC4)cn3)nc2n(C2CCCC2)c1=O + CC(Nc1ccc2c(c1)OCCn1cc(N3C(=O)OCC3C(F)F)nc1-2)C(N)=O
- viability, T/C [1]: 97.9%
- viability, T/C [2]: 106%
- viability, T/C [3]: 105%
- viability, T/C [4]: 107%
- viability, T/C [5]: 99.4%
- viability, T/C [6]: 73.7%
- viability, T/C [7]: 111%
- viability, T/C [8]: 104%
- viability, T/C [9]: 104%
- viability, T/C [10]: 99.8%
- viability, T/C [11]: 99.1%
- viability, T/C [12]: 76.8%
- viability, T/C [13]: 102%
- viability, T/C [14]: 102%
- viability, T/C [15]: 93.8%
- viability, T/C [16]: 86.8%
- viability, T/C [17]: 91%
- viability, T/C [18]: 82.6%
- viability, T/C [19]: 98.8%
- viability, T/C [20]: 87.2%
- viability, T/C [21]: 86.1%
- viability, T/C [22]: 89%
- viability, T/C [23]: 90.4%
- viability, T/C [24]: 63.8%
- viability, T/C [25]: 96.5%
- viability, T/C [26]: 87.1%
- viability, T/C [27]: 90.8%
- viability, T/C [28]: 77.6%
- viability, T/C [29]: 81.4%
- viability, T/C [30]: 61.9%
- viability, T/C [31]: 86.6%
- viability, T/C [32]: 78.5%
- viability, T/C [33]: 75%
- viability, T/C [34]: 85.1%
- viability, T/C [35]: 64.3%
- viability, T/C [36]: 48.9%

- IC50 (second compound 0.00316 µM): > 100 nM
- IC50 (second compound 0.01 µM): > 100 nM
- IC50 (second compound 0.0316 µM): > 100 nM
- IC50 (second compound 0.1 µM): 95.8 nM
- IC50 (second compound 0.316 µM): > 100 nM
- IC50 (second compound 1 µM): 54.4 nM
Structure (SMILES): CC(C)n1nc(-c2ccc3oc(N)nc3c2)c2c(N)ncnc21 + CC(Nc1ccc2c(c1)OCCn1cc(N3C(=O)OCC3C(F)F)nc1-2)C(N)=O
- viability, T/C [1]: 102%
- viability, T/C [2]: 106%
- viability, T/C [3]: 98.2%
- viability, T/C [4]: 95.6%
- viability, T/C [5]: 101%
- viability, T/C [6]: 59.9%
- viability, T/C [7]: 109%
- viability, T/C [8]: 104%
- viability, T/C [9]: 97.5%
- viability, T/C [10]: 91.6%
- viability, T/C [11]: 95.8%
- viability, T/C [12]: 57.3%
- viability, T/C [13]: 102%
- viability, T/C [14]: 98.7%
- viability, T/C [15]: 91.9%
- viability, T/C [16]: 91.2%
- viability, T/C [17]: 94.1%
- viability, T/C [18]: 50.2%
- viability, T/C [19]: 102%
- viability, T/C [20]: 116%
- viability, T/C [21]: 100%
- viability, T/C [22]: 91.2%
- viability, T/C [23]: 87.2%
- viability, T/C [24]: 47.6%
- viability, T/C [25]: 84.9%
- viability, T/C [26]: 96.3%
- viability, T/C [27]: 106%
- viability, T/C [28]: 81.7%
- viability, T/C [29]: 75.6%
- viability, T/C [30]: 51.9%
- viability, T/C [31]: 89%
- viability, T/C [32]: 80.6%
- viability, T/C [33]: 82.4%
- viability, T/C [34]: 68.8%
- viability, T/C [35]: 69.9%
- viability, T/C [36]: 32.6%

- IC50 (second compound 0.00316 µM): 5170 nM
- IC50 (second compound 0.01 µM): 5130 nM
- IC50 (second compound 0.0316 µM): 5270 nM
- IC50 (second compound 0.1 µM): 4340 nM
- IC50 (second compound 0.316 µM): 4030 nM
- IC50 (second compound 1 µM): 1740 nM
Structure (SMILES): CCCS(=O)(=O)Nc1ccc(F)c(C(=O)c2c[nH]c3ncc(-c4ccc(Cl)cc4)cc23)c1F + CC(Nc1ccc2c(c1)OCCn1cc(N3C(=O)OCC3C(F)F)nc1-2)C(N)=O
- viability, T/C [5]: 102%
- viability, T/C [6]: 100%
- viability, T/C (second compound 0.00316 µM, first compound 0.316 µM): 84.9%
- viability, T/C (second compound 0.00316 µM, first compound 1 µM): 82.8%
- viability, T/C (second compound 0.00316 µM, first compound 3.16 µM): 83.8%
- viability, T/C (second compound 0.00316 µM, first compound 10 µM): 4.25%
- viability, T/C [11]: 101%
- viability, T/C [12]: 94.7%
- viability, T/C (second compound 0.01 µM, first compound 0.316 µM): 81.8%
- viability, T/C (second compound 0.01 µM, first compound 1 µM): 83.6%
- viability, T/C (second compound 0.01 µM, first compound 3.16 µM): 83.4%
- viability, T/C (second compound 0.01 µM, first compound 10 µM): 4.05%
- viability, T/C [17]: 92.3%
- viability, T/C [18]: 86%
- viability, T/C (second compound 0.0316 µM, first compound 0.316 µM): 85.5%
- viability, T/C (second compound 0.0316 µM, first compound 1 µM): 83%
- viability, T/C (second compound 0.0316 µM, first compound 3.16 µM): 87.2%
- viability, T/C (second compound 0.0316 µM, first compound 10 µM): 3.87%
- viability, T/C [23]: 88.5%
- viability, T/C [24]: 81.5%
- viability, T/C (second compound 0.1 µM, first compound 0.316 µM): 89.1%
- viability, T/C (second compound 0.1 µM, first compound 1 µM): 73%
- viability, T/C (second compound 0.1 µM, first compound 3.16 µM): 70.2%
- viability, T/C (second compound 0.1 µM, first compound 10 µM): 4.14%
- viability, T/C [29]: 86.7%
- viability, T/C [30]: 72.6%
- viability, T/C (second compound 0.316 µM, first compound 0.316 µM): 63%
- viability, T/C (second compound 0.316 µM, first compound 1 µM): 73.5%
- viability, T/C (second compound 0.316 µM, first compound 3.16 µM): 62.5%
- viability, T/C (second compound 0.316 µM, first compound 10 µM): 3.6%
- viability, T/C [35]: 74.4%
- viability, T/C [36]: 65.7%
- viability, T/C (second compound 1 µM, first compound 0.316 µM): 70%
- viability, T/C (second compound 1 µM, first compound 1 µM): 50.3%
- viability, T/C (second compound 1 µM, first compound 3.16 µM): 46.6%
- viability, T/C (second compound 1 µM, first compound 10 µM): 2.59%
